“Also recorded” adds a separate entry of the source.
Tests used:
Ramos = experiment: Cell death of other cancer cell lines: Ramos; assay type: cell-based; settings: Homo sapiens, Burkitt lymphoma
Protocol: (§1) The PROTACs prepared herein were tested for their use in other cancer cell lines to determine activity in multiple different types of cancer.

Mdm2 = Mdm2 (Homo sapiens, UniProt Q00987); experiment: In-Cell Western, mut p53 MDA-MB-231 cell line; assay type: cell-based; parameters: endogenous in cells; host or cells: MCF7 (A8); MDA-MB-231 (A9); settings: mutant p53 MDA-MB-231
Protocol: Cells were seeded at decreasing cell number from 15K cells to 2K cells. The Mdm2 primary antibody was tested at 1:200 and 1:300 dilution. The secondary antibody conjugated to IRDye800CW was used with 1:800 dilution, and CellTag 700 Stain was used at 1:1000 dilution as manufacture recommended. The linearity of cell number versus signal was generated with Prism. The signal over background ratio was also calculated.
The potential PROTACs were evaluated in the wt p53 MCF7 cell line and in the mut p53 MDA-MB-231 cell line. Importantly these were compared to MD-224, which was recently reported to potently degrade Mdm2 in RS4; 11 leukemia cells (Li et al., 2019). Assay linearity was performed confirming a strong 4-fold signal to noise in the assay. A series of bi-functional molecules were then treated and evaluated for protein level in the assay over time from 2 h-48 h. […] In this wt p53 cancer cell line the stabilization of p53 (FIG. 15B), and subsequent p53-mediated transcriptional upregulation of Mdm2 make it difficult to observe degradation. […] These compounds were evaluated in the mutant p53 cancer cells. […] In this cell line, it takes approximately 16-24 h to detect the degradation. […] The difference in the molecules is that MD-224 utilizes a CRBN recruiting ligand.

[1] = In vivo toxicity, C57Bl/6 mice; parameters: species or system mouse
Protocol: FIGS. 24A-24E show no overt toxicities from the MDM2-PROTAC YX-02-030 observed in vivo. A-B. A. After C57Bl/6 immunocompetent mice received 15 consecutive intraperitoneal (IP) injections of MDM2-PROTAC (50 mg/kg) or vehicle control treatments, complete blood counts were determined. B. H&E sections of formalin-fixed paraffin-embedded tissues evaluated (B, BM-bone marrow). C-E, Nude mice with subcutaneous tumors of MDA-MB-231 and MDA-MB-436 TNBC cells were administered (IP) MDM2-PROTAC YX-02-030, RG7112D, or vehicle control (50 mg/kg) for 14 consecutive days. C. Mouse weight was measured daily throughout the course of treatment. D. Complete blood counts were determined following 13 consecutive treatments. E. Sections of formalin-fixed paraffin-embedded tissues from mice at time of sacrifice were H&E stained and evaluated. Representative images are shown and scale bars are 200 m (spleen) and 300 μm (bone marrow and intestine). Mean±SD (A, C, D).
Prior to testing YX-02-030 tumors in vivo, mouse liver microsome and pharmacokinetic (PK) studies were performed to determine its stability in vivo. […] Due to its stability in vivo, the effectiveness of YX-02-030 was then evaluated at killing TNBC tumors in mice. […] The toxicity of YX-2-228 was analyzed as compared to both the vehicle and YX-2-30. […]

Cal27 = experiment: Cell death of other cancer cell lines: Cal27; assay type: cell-based; settings: Homo sapiens, CAL-27; Cal27, Head & Neck
Protocol: as §1

[2] = Mouse pharmacokinetic study, intraperitoneal; assay type: in vivo; settings: single 10 mg/kg intraperitoneal dose, 0.25-6 h
Protocol: To translate cell-based activity to in vivo efficacy, the Mdm2 PROTACs were evaluated for metabolic stability and plasma compound levels after IP injection in the mouse. Mouse liver microsome stability was obtained for lead compounds (Alliance Pharma, Inc; Malvern PA) as a predictive measure for suitable exposure in a mouse pharmacokinetic study. In brief, test compounds (0.5 μM) are incubated with liver microsomes ([…]) and an NADPH-regenerating system (cofactor solution) and samples are taken at various timepoints, quenched with an acetonitrile solution containing an internal standard, then analyzed by LC-MS/MS. […] Mouse pharmacokinetic studies for YX-02-030 and YX-02-288 were completed. Mouse plasma levels were evaluated following intraperitoneal (10 mg/kg) administration. Plasma was collected at timepoints 0.25 h, 0.5 h, 1 h, 2 h, 4 h and 6 h after Mdm2 PROTAC injection. Plasma was deproteinized and analyzed for compound using LC-MS/MS methods. Three mice were used for each time point and one control animal (Alliance Pharma Inc, Malvern PA).

Chain of Mdm2 (Q00987 whole entry): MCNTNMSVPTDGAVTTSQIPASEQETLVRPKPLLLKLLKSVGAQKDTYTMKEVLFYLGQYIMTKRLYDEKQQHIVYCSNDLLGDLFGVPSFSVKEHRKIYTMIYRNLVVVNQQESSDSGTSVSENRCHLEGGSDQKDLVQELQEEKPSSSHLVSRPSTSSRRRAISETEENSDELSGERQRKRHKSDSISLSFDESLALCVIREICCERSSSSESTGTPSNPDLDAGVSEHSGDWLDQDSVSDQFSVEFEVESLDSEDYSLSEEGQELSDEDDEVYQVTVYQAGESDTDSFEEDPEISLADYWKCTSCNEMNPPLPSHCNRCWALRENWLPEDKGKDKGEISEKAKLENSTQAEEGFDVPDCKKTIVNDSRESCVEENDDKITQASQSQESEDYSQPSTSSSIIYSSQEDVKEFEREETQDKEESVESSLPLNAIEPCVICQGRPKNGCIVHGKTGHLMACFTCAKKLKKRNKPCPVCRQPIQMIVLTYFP

In the case of `CCOc1cc(C(C)(C)C)ccc1C1=N[C@](C)(c2ccc(Cl)cc2)[C@](C)(c2ccc(Cl)cc2)N1C(=O)N1CCN(CC(=O)NCCOCCOCCOCC(=O)N[C@H](C(=O)N2C[C@H](O)C[C@H]2C(=O)NCc2ccc(-c3scnc3C)cc2)C(C)(C)C)CC1` (racemic) [YX-02-030], the IC50 (Ramos) is reported as 3.1 µM, the Mdm2 degradation (Mdm2) is reported as “degrade Mdm2” and the overt toxicity ([1]; C57Bl/6 mice and immune-deficient mice of the xenograft experiments, 50 mg/kg IP) is reported as “no signs of overt toxicity”. The tolerability ([1]; C57Bl/6 mice, 30 mg/kg IP, 2× daily) was “well tolerated”, the IC50 (Cal27) was 2.3 µM and the “in vivo plasma levels” value ([2]; 10 mg/kg) was “prolonged in vivo plasma exposure; also recorded: plasma levels stable over 6 hours”.

In the case of `CCOc1cc(C(C)(C)C)ccc1C1=N[C@](C)(c2ccc(Cl)cc2)[C@](C)(c2ccc(Cl)cc2)N1C(=O)N1CCN(CC(=O)NCCCNC(=O)COc2ccc3c(c2)CN(C(=O)[C@H](NC(=O)[C@@H](C)NC)C(C)(C)C)[C@@H](C(=O)N[C@H]2CCCc4ccccc42)C3)CC1` [YX-02-228, (R)-7-(2-((3-(2-(4-((4R,5S)-2-(4-(tert-butyl)-2-ethoxyphenyl)-4,5-bis(4-chlorophenyl)-4,5-dimethyl-4,5-dihydro-1H-imidazole-1-carbonyl)piperazin-1-yl)acetamido)propyl)amino)-2-oxoethoxy)-2-((R)-3,3-dimethyl-2-((R)-2-(methylamino)propanamido)butanoyl)-N-((S)-1,2,3,4-tetrahydronaphthalen-1-yl)-1,2,3,4-tetrahydroisoquinoline-3-carboxamide], the IC50 (Ramos) is reported as 5.5 µM, the Mdm2 degradation (Mdm2) is reported as “degrade Mdm2” and the “in vivo plasma levels” value [2] is reported as “prolonged in vivo plasma exposure”.

Reference: patent US20260053931A1, “MDM2 TARGETING PROTACS” (THE WISTAR INSTITUTE OF ANATOMY AND BIOLOGY, priority 2023, published 2026)
